Laboratory results published in patent publication US8822698B2, “Aminoacid derivatives, their process of preparation and their therapeutical uses as inhibitors of oncogenic signals by the Met family” (Universite D'Aix-Marseille, priority 2009, dated 2014).

Experiments:
Assay in all cases: NCI 60 human tumour cell line screen
Assay type in all cases: cell-based
[1] = system: HT29; conditions: conc. 10^−5M; HT29, Colon Cancer
Source text: (§1) Compound of example 4 was screened in the NCI 60 human tumour cell line anticancer drug screen (Shoemaker et al Nature reviews 6, 2006, 813-823).

[2] = system: LOX IMVI; conditions: conc. 10^−5M, Melanoma
Source text: as §1

[3] = system: HS 578T; conditions: conc. 10^−5M, Breast Cancer
Source text: as §1

[4] = system: MDA-MB-435; conditions: conc. 10^−5M; MDA-MB-435, Melanoma
Source text: as §1

[5] = system: KM12; conditions: conc. 10^−5M; KM12, Colon Cancer
Source text: as §1

[6] = system: A549/ATCC; conditions: conc. 10^−5M, Non-Small Cell Lung Cancer
Source text: as §1

[7] = system: MDA-MB-468; conditions: conc. 10^−5M; MDA-MB-468, Breast Cancer
Source text: as §1

[8] = system: NCl-H460; conditions: conc. 10^−5M; NCl-H460, Non-Small Cell Lung Cancer
Source text: as §1

[9] = system: ACHN; conditions: conc. 10^−5M, Renal Cancer
Source text: as §1

[10] = system: EKVX; conditions: conc. 10^−5M, Non-Small Cell Lung Cancer
Source text: as §1

[11] = system: T-47D; conditions: conc. 10^−5M, Breast Cancer
Source text: as §1

[12] = system: SR; conditions: conc. 10^−5M, Leukemia
Source text: as §1

[13] = system: K-562; conditions: conc. 10^−5M; K-562, Leukemia
Source text: as §1

[14] = system: U251; conditions: conc. 10^−5M; U251, CNS Cancer
Source text: as §1

[15] = system: COLO 205; conditions: conc. 10^−5M; COLO 205, Colon Cancer
Source text: as §1

[16] = system: OVCAR-3; conditions: conc. 10^−5M; OVCAR-3, Ovarian Cancer
Source text: as §1

[17] = system: OVCAR-8; conditions: conc. 10^−5M; OVCAR-8, Ovarian Cancer
Source text: as §1

[18] = system: CCRF-CEM; conditions: conc. 10^−5M, Leukemia
Source text: as §1

[19] = system: A498; conditions: conc. 10^−5M; A498, Renal Cancer
Source text: as §1

[20] = system: MOLT-4; conditions: conc. 10^−5M; MOLT-4, Leukemia
Source text: as §1

[21] = system: MCF7; conditions: conc. 10^−5M; MCF7, Breast Cancer
Source text: as §1

[22] = system: SN12C; conditions: conc. 10^−5M, Renal Cancer
Source text: as §1

[23] = system: NCl/ADR-RES; conditions: conc. 10^−5M, Ovarian Cancer
Source text: as §1

[24] = system: UO-31; conditions: conc. 10^−5M; UO-31, Renal Cancer
Source text: as §1

[25] = system: HCT-15; conditions: conc. 10^−5M; HCT-15, Colon Cancer
Source text: as §1

[26] = system: HOP-92; conditions: conc. 10^−5M; HOP-92, Non-Small Cell Lung Cancer
Source text: as §1

[27] = system: TK-10; conditions: conc. 10^−5M; TK-10, Renal Cancer
Source text: as §1

[28] = system: 786-0; conditions: conc. 10^−5M; 786-0, Renal Cancer
Source text: as §1

[29] = system: OVCAR-5; conditions: conc. 10^−5M; OVCAR-5, Ovarian Cancer
Source text: as §1

[30] = system: HL-60(TB); conditions: conc. 10^−5M, Leukemia
Source text: as §1

[31] = system: CAK I-1; conditions: conc. 10^−5M; CAK I-1, Renal Cancer
Source text: as §1

[32] = system: HCC-2998; conditions: conc. 10^−5M; HCC-2998, Colon Cancer
Source text: as §1

[33] = system: BT-549; conditions: conc. 10^−5M; BT-549, Breast Cancer
Source text: as §1

[34] = system: SF-295; conditions: conc. 10^−5M; SF-295, CNS Cancer
Source text: as §1

[35] = system: SK-MEL-2; conditions: conc. 10^−5M; SK-MEL-2, Melanoma
Source text: as §1

[36] = system: MDA-MB-231/ATCC; conditions: conc. 10^−5M, Breast Cancer
Source text: as §1

[37] = system: UACC-62; conditions: conc. 10^−5M; UACC-62, Melanoma
Source text: as §1

[38] = system: HCT-116; conditions: conc. 10^−5M; HCT-116, Colon Cancer
Source text: as §1

[39] = system: OVCAR-4; conditions: conc. 10^−5M; OVCAR-4, Ovarian Cancer
Source text: as §1

[40] = system: NCl-H322M; conditions: conc. 10^−5M, Non-Small Cell Lung Cancer
Source text: as §1

[41] = system: SNB-75; conditions: conc. 10^−5M; SNB-75, CNS Cancer
Source text: as §1

[42] = system: SNB-19; conditions: conc. 10^−5M; SNB-19, CNS Cancer
Source text: as §1

## O=C(Cc1cc(C(F)(F)F)cc(C(F)(F)F)c1)N[C@@H](Cc1ccccc1)C(=O)Nc1ccc(-c2cn3c(n2)sc2ccccc23)cc1 [Example 4, (S)-2-(3,5-bis(trifluoromethyl)phenylacetamido)-3-phenyl-N-[4-(imidazo[2,1-b]benzothiazol-2-yl)phenyl]propanamide]
[1]
  Growth Percent: 18.28%
[2]
  Growth Percent: 26.60%
[3]
  Growth Percent: 16.75%
[4]
  Growth Percent: 54.92%
[5]
  Growth Percent: 16.15%
[6]
  Growth Percent: 31.71%
[7]
  Growth Percent: 78.09%
[8]
  Growth Percent: −16.59%
[9]
  Growth Percent: 81.23%
[10]
  Growth Percent: 15.48%
[11]
  Growth Percent: 67.66%
[12]
  Growth Percent: 58.33%
[13]
  Growth Percent: 63.10%
[14]
  Growth Percent: 34.24%
[15]
  Growth Percent: 71.04%
[16]
  Growth Percent: 2.50%
[17]
  Growth Percent: 3.54%
[18]
  Growth Percent: 32.94%
[19]
  Growth Percent: 120.10%
[20]
  Growth Percent: 43.46%
[21]
  Growth Percent: 59.09%
[22]
  Growth Percent: 47.40%
[23]
  Growth Percent: 43.07%
[24]
  Growth Percent: 67.05%
[25]
  Growth Percent: 44.16%
[26]
  Growth Percent: 71.89%
[27]
  Growth Percent: 61.11%
[28]
  Growth Percent: 60.35%
[29]
  Growth Percent: 97.36%
[30]
  Growth Percent: 79.95%
[31]
  Growth Percent: 53.37%
[32]
  Growth Percent: 98.28%
[33]
  Growth Percent: 82.05%
[34]
  Growth Percent: 42.18%
[35]
  Growth Percent: 45.85%
[36]
  Growth Percent: 17.15%
[37]
  Growth Percent: 69.45%
[38]
  Growth Percent: 21.40%
[39]
  Growth Percent: −0.79%
[40]
  Growth Percent: 28.70%
[41]
  Growth Percent: 20.69%
[42]
  Growth Percent: 69.84%
